According to patent US10413593B2 (priority 2014, dated 2019):
*1 amine or outer side, *2 acyl side, *3 side chain or, on linkers, in order; H or OH if unused. Where a SMILES comes first, the peptide text is derived from it. Side-chain parts run from the residue outwards. [ ]: non-standard residue; d: D form. The star is where a group is joined. γGlu = O=C(O)[C@H](CCC(=O)[*:2])N[*:1]; X1 = O=C(C(N[*:1])C(O)c1ccccc1)[*:2]; Palmitoyl = CCCCCCCCCCCCCCCC(=O)*

Columns and labels:
[1] = Cumulative body weight change in DIO mice, daily s.c. dosing for nine days (Example 18, FIG. 1); type: in vivo, mice (strain C57Bl6/NTac); conditions: 9 nmol/kg s.c. daily, day 9
Description: Mice were administered a vehicle control or a dose of a peptide daily for nine days. […] The peptide of SEQ ID NO: 9 was administered at doses of 9 and 25 nmol/kg. Cumulative body weight change (grams) was measured each day of the study except on day 3. Results are shown in FIG. 1 and are expressed as mean±SEM.

[2] = Cumulative food intake in DIO mice (Example 20, FIG. 3); conditions: 3 nmol/kg, after 8 days of dosing
Description: For the studies in Examples 18, 19, 20, and 21, diet induced obesity (DIO) mice (strain C57Bl6/NTac; 20 weeks on a high fat diet, about 47 g) were divided into groups of eight mice per group and the initial average body weight, food intake and basal glucose of each group were matched before peptide administration. Each group of mice was subcutaneously injected daily with a dose of Co-agonist Peptide or vehicle control for 7 to 10 days. The peptides tested in this study were Co-agonist Peptides 1, 2, 3, 4, 5, and 6 (SEQ ID NOs: 6, 7, 8, 9, 10, and 11, respectively) at the doses that varied from 3 nmol/kg to 25 nmol/kg. Body weight, food intake and basal glucose were measured periodically during treatment.

[3] = Second study in DIO mice: body weight change percent relative to vehicle (Example 19, FIG. 2); type: in vivo, mice (strain C57Bl6/NTac); conditions: 3 nmol/kg daily, eight days
Description: In addition, the peptide of SEQ ID NO: 8 was administered at 15 nmol/kg, while the peptide of SEQ ID NOs: 10 and 11 were administered at 3 nmol/kg. Body weight was measured daily for eight days and body weight change is expressed as percent relative to vehicle (FIG. 2).

[4] = molecular target: T1, human GLP-1R (Homo sapiens, UniProt P43220); assay: cAMP assay in cells expressing human GLP-1R (HitHunter cAMP XS); type: cell-based; conditions: cAMP production, assay buffer with 20% human serum, 1 hour, read-out: GLPR1 EC50 (nM) human
T1 construct: expressed in transfected cells
T1 sequence (P43220 24-463): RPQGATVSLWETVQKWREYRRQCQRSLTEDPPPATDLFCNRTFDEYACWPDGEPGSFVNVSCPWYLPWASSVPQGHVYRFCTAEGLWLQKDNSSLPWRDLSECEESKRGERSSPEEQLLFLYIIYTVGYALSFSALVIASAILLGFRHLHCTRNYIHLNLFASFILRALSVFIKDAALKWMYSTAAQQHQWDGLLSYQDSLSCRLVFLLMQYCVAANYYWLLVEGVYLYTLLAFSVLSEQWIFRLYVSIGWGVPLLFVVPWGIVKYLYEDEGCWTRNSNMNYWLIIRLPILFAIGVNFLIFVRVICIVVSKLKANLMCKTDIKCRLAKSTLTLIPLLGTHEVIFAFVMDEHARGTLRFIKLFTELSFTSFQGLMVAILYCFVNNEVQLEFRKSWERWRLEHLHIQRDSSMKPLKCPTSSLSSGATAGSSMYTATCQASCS
Description: The cAMP protocol was as follows.
(§1) Peptides were dissolved in 100% DMSO and serially diluted to generate 11 point titrations. The peptide solutions were then transferred into 384-well assay plates (150 nL/well). Assay ready frozen cells expressing human GLP-1R or human GCGR were suspended in growth media consisting of DMEM/F12 medium (GIBCO), 10% FBS (GIBCO), lx P/S (GIBCO), 800 μg/mL Geneticin (GIBCO), and 300 μg/mL Hygromycin (Invitrogen). Cells were then diluted in assay buffer consisting of PBS (GIBCO), 7.5% BSA (Perkin Elmer), 100 μM RO 20-1724 (Sigma), and 20% human serum (MP Biomedical). The cell suspensions (15 μL) were then added to the assay plates containing the peptide solutions (30,000 cells/well for human GCGR; 20,000 cells/well for GLP1R). The cells were incubated for 1 hour at room temperature in the dark. Production of cAMP was determined using HitHunter™ cAMPXS kits (DiscoverX). ED buffer (20 μL) was then added to each well and the plates were incubated for 1 hour at room temperature in the dark. Subsequently, EA buffer (20 μL) was added to each well, and the plates were incubated for 1-18 hours at room temperature in the dark. Luminescence was measured using an EnVision Multilabel plate reader (Perkin Elmer). EC50 values were calculated using ADA data analyzer software.

[5] = molecular target: T2, human GCGR (Homo sapiens, UniProt P47871); assay: cAMP assay in cells expressing human GCGR (HitHunter cAMP XS); type: cell-based
T2 construct: expressed in transfected cells
T2 sequence (P47871 26-477): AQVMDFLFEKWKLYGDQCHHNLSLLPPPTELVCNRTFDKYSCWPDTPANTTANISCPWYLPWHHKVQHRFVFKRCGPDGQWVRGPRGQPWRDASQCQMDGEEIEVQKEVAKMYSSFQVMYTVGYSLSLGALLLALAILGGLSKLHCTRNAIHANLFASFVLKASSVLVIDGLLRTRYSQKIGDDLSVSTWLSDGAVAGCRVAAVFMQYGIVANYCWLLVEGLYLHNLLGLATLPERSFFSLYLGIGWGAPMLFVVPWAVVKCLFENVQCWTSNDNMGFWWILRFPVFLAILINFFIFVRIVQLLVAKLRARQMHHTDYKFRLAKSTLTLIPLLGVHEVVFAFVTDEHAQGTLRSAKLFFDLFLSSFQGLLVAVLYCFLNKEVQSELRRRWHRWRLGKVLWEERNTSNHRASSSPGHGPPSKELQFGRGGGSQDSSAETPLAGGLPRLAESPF
Description: The cAMP protocol was as follows.
as §1

Row | SMILES | body weight loss [1] | change in food intake vs vehicle [2] | weight loss, percent relative to vehicle [3] | EC50 [4] | EC50 ([5]; cAMP production, cells expressing human GCGR, assay buffer with 20% human serum, 1 hour) | hGCGR/hGLP1R (hTone) ([5]; ratio of EC50 at human GCGR to EC50 at human GLP1R)
1 | CCCCCCCCCCCCCCCC(=O)N[C@@H](CCC(=O)N[C@@H](CCC(=O)NCCCC[C@H](NC(=O)[C@H](CC(=O)O)NC(=O)[C@H](CO)NC(=O)[C@@H](NC(=O)[C@H](Cc1ccccc1)NC(=O)[C@@H](NC(=O)CNC(=O)[C@H](CCC(N)=O)NC(=O)[C@@H](CO)NC(=O)[C@@H](N)Cc1c[nH]cn1)[C@@H](C)O)[C@@H](C)O)C(=O)N[C@@H](CO)C(=O)N[C@@H](CCCCN)C(=O)N[C@@H](Cc1ccc(O)cc1)C(=O)N[C@@H](CC(C)C)C(=O)N[C@@H](CC(=O)O)C(=O)N[C@@H](C)C(=O)N[C@@H](CCCNC(=N)N)C(=O)N[C@@H](C)C(=O)N[C@@H](C)C(=O)N[C@@H](CCC(N)=O)C(=O)N[C@@H](CC(=O)O)C(=O)N[C@@H](Cc1ccccc1)C(=O)N[C@H](C(=O)N[C@@H](CCC(N)=O)C(=O)N[C@@H](Cc1c[nH]c2ccccc12)C(=O)N[C@@H](CC(C)C)C(=O)N[C@@H](CC(C)C)C(=O)N[C@@H](CC(=O)O)C(=O)N[C@H](C(N)=O)[C@@H](C)O)C(C)C)C(=O)O)C(=O)O [SEQ ID NO: 10] | approximately 13 grams | significant suppression of food intake | approximately 17% |  |  | 
2 | CCCCCCCCCCCCCCCC(=O)N[C@@H](CCC(=O)N[C@@H](CCC(=O)NCCCC[C@H](NC(=O)[C@H](CC(=O)O)NC(=O)[C@H](CO)NC(=O)[C@@H](NC(=O)C(NC(=O)[C@@H](NC(=O)CNC(=O)[C@H](CCC(N)=O)NC(=O)[C@@H](CO)NC(=O)[C@@H](N)Cc1c[nH]cn1)[C@@H](C)O)C(O)c1ccccc1)[C@@H](C)O)C(=O)N[C@@H](CO)C(=O)N[C@@H](CCCCN)C(=O)N[C@@H](Cc1ccc(O)cc1)C(=O)N[C@@H](CC(C)C)C(=O)N[C@@H](CC(=O)O)C(=O)N[C@@H](CCC(=O)O)C(=O)N[C@@H](CCCNC(=N)N)C(=O)N[C@@H](C)C(=O)N[C@@H](C)C(=O)N[C@@H](CCC(N)=O)C(=O)N[C@@H](CC(=O)O)C(=O)N[C@@H](Cc1ccccc1)C(=O)N[C@H](C(=O)N[C@@H](CCC(N)=O)C(=O)N[C@@H](Cc1c[nH]c2ccccc12)C(=O)N[C@@H](CC(C)C)C(=O)N[C@@H](CC(C)C)C(=O)N[C@@H](CC(=O)O)C(=O)N[C@H](C(N)=O)[C@@H](C)O)C(C)C)C(=O)O)C(=O)O (stereo partly drawn) [compound 19] (H-H[dS]QGT[X1]TSDK([γGlu-γGlu-Palmitoyl])SKYLDERAAQDFVQWLLDT-NH2; N-terminus assumed) |  |  |  | 1.02 nM | 1.04 nM | 1.02
